Reference: ChEMBL document CHEMBL3091298, “Bis-phosphonium salts of pyridoxine: the relationship between structure and antibacterial activity” (Bioorg Med Chem, 2013)
≈ marks a conversion by molar mass, not a printed value.

What was measured:
[1] = Genotoxicity in uvrA-deficient Escherichia coli assessed as survival at 1 ug/ml after 6 hrs by DNA-repair test; assay type: toxicity, organism-based; details: read-out: Survival
[2] = Genotoxicity in uvrA-deficient Escherichia coli assessed as survival at 10 ug/ml after 6 hrs by DNA-repair test; assay type: toxicity, organism-based; details: read-out: Survival
[3] = Genotoxicity in uvrA-deficient Escherichia coli assessed as survival at 100 ug/ml after 6 hrs by DNA-repair test; assay type: toxicity, organism-based; details: read-out: Survival
[4] = Genotoxicity in polA-deficient Escherichia coli assessed as survival at 1 ug/ml after 6 hrs by DNA-repair test; assay type: toxicity, organism-based; details: read-out: Survival
[5] = Genotoxicity in polA-deficient Escherichia coli assessed as survival at 10 ug/ml after 6 hrs by DNA-repair test; assay type: toxicity, organism-based; details: read-out: Survival
[6] = Genotoxicity in polA-deficient Escherichia coli assessed as survival at 100 ug/ml after 6 hrs by DNA-repair test; assay type: toxicity, organism-based; details: read-out: Survival
[7] = Genotoxicity in recA-deficient Escherichia coli assessed as survival at 1 ug/ml after 6 hrs by DNA-repair test; assay type: toxicity, organism-based; details: read-out: Survival
[8] = Genotoxicity in recA-deficient Escherichia coli assessed as survival at 100 ug/ml after 6 hrs by DNA-repair test; assay type: toxicity, organism-based; details: read-out: Survival
[9] = Genotoxicity in recA-deficient Escherichia coli assessed as survival at 10 ug/ml after 6 hrs by DNA-repair test; assay type: toxicity, organism-based; details: read-out: Survival
[10] = test system: Salmonella typhimurium; assay: Mutagenic activity in Salmonella typhimurium TA100 assessed as increase in number of revertants at 1 ug/ml by Ames test relative to solvent control; assay type: toxicity, organism-based; details: salmonella enterica subsp. enterica serovar typhimurium
[11] = test system: Salmonella typhimurium; assay: Mutagenic activity in Salmonella typhimurium TA100 assessed as increase in number of revertants at 10 ug/ml by Ames test relative to solvent control; assay type: toxicity, organism-based; details: salmonella enterica subsp. enterica serovar typhimurium
[12] = test system: HEK293; assay: (§1) Cytotoxicity against HEK293 cells after 72 hrs by MTT assay; assay type: cell-based; details: human, hek293, 72 h
[13] = test system: Salmonella typhimurium; assay: Mutagenic activity in Salmonella typhimurium TA100 assessed as increase in number of revertants at 100 ug/ml by Ames test relative to solvent control; assay type: toxicity, organism-based; details: salmonella enterica subsp. enterica serovar typhimurium
[14] = test system: Klebsiella pneumoniae; assay: Antibacterial activity against Klebsiella pneumoniae after 18 to 24 hrs; assay type: functional
[15] = test system: Proteus sp.; assay: Antibacterial activity against Proteus sp. after 18 to 24 hrs; assay type: functional; details: Proteus sp. (in: enterobacteria)
[16] = test system: Staphylococcus epidermidis; assay: Antibacterial activity against Staphylococcus epidermidis after 18 to 24 hrs; assay type: functional
[17] = test system: Staphylococcus aureus; assay: Antibacterial activity against Staphylococcus aureus after 18 to 24 hrs; assay type: functional
[18] = as §1; assay type: cell-based; details: human, HEK293 cells

Row | Compound | MIC [14] [µg/mL] | MIC [15] [µg/mL] | MIC [16] [µg/mL] | MIC [17] [µg/mL] | CC50 at 72 h [18] [µg/mL] | also measured
1 | Cc1nc(C[P+](c2ccccc2)(c2ccccc2)c2ccccc2)c(C[P+](c2ccccc2)(c2ccccc2)c2ccccc2)c2c1OC(C)(C)OC2.[Cl-].[Cl-] | > 1000 | > 1000 | 5 | 5 |  | viability at 6 h, 1 ug/ml [1]: 103%; viability at 6 h, 10 ug/ml [2]: 114%; viability at 6 h, 100 ug/ml [3]: 68.9%; viability at 6 h, 1 ug/ml [4]: 114%; viability at 6 h, 10 ug/ml [5]: 112%; viability at 6 h, 100 ug/ml [6]: 59.4%; viability at 6 h, 1 ug/ml [7]: 88.8%; viability at 6 h, 100 ug/ml [8]: 70.1%; viability at 6 h, 10 ug/ml [9]: 79.3%; Ratio [10]: 0.76; Ratio [11]: 0.88; CC50 [12]: 72 µg/mL; Ratio [13]: 0.85
2 | Cc1nc(C[P+](c2ccccc2)(c2ccccc2)c2ccccc2)c(C[P+](c2ccccc2)(c2ccccc2)c2ccccc2)c2c1OC(C)(C)OC2.[Br-].[Br-] | > 1000 | > 1000 | 2.5 | 1.25 |  | CC50 [12]: 27.5 µg/mL
3 | Cc1nc(C[P+](c2ccccc2)(c2ccccc2)c2ccccc2)c(C[P+](c2ccccc2)(c2ccccc2)c2ccccc2)c2c1OC(C)(C)OC2.O=[N+]([O-])[O-].O=[N+]([O-])[O-] | 1000 | > 1000 | 100 | 100 |  | 
4 | Cc1nc(C[P+](c2ccccc2)(c2ccccc2)c2ccccc2)c(C[P+](c2ccccc2)(c2ccccc2)c2ccccc2)c2c1OC(C)(C)OC2.[I-].[I-] | > 1000 | > 1000 | 10 | 10 |  | 
5 | Cc1nc(C[P+](c2ccccc2)(c2ccccc2)c2ccccc2)c(CO)c2c1OC(C)(C)OC2.[Br-] | > 1000 | > 1000 | 10 | 10 |  | 
6 | CCCC1OCc2c(C[P+](c3ccc(C)cc3)(c3ccc(C)cc3)c3ccc(C)cc3)c(C[P+](c3ccc(C)cc3)(c3ccc(C)cc3)c3ccc(C)cc3)nc(C)c2O1.[Cl-].[Cl-] (centres undefined) | 1000 | 1000 | 2.5 | 2.5 | 1 | 
7 | CCC1OCc2c(C[P+](c3ccccc3)(c3ccccc3)c3ccccc3)c(C[P+](c3ccccc3)(c3ccccc3)c3ccccc3)nc(C)c2O1.[Cl-].[Cl-] (centres undefined) | > 1000 | > 1000 | 10 | 10 | 4 | 
8 | CCCC1OCc2c(C[P+](c3ccccc3)(c3ccccc3)c3ccccc3)c(C[P+](c3ccccc3)(c3ccccc3)c3ccccc3)nc(C)c2O1.[Cl-].[Cl-] (centres undefined) | > 1000 | > 1000 | 1 | 1 | 3 | viability at 6 h, 1 ug/ml [1]: 113%; viability at 6 h, 10 ug/ml [2]: 116%; viability at 6 h, 100 ug/ml [3]: 64.4%; viability at 6 h, 1 ug/ml [4]: 110%; viability at 6 h, 10 ug/ml [5]: 108%; viability at 6 h, 100 ug/ml [6]: 57.7%; viability at 6 h, 1 ug/ml [7]: 87.8%; viability at 6 h, 100 ug/ml [8]: 80.4%; viability at 6 h, 10 ug/ml [9]: 83.1%; Ratio [10]: 0.91; Ratio [11]: 1.12; Ratio [13]: 1.08
9 | Cc1nc(C[P+](c2ccccc2)(c2ccccc2)c2ccccc2)c(C[P+](c2ccccc2)(c2ccccc2)c2ccccc2)c2c1OC(C(C)C)OC2.[Cl-].[Cl-] (centres undefined) | > 1000 | > 1000 | 5 | 10 | 2.57 | 
10 | CCCCC1OCc2c(C[P+](c3ccccc3)(c3ccccc3)c3ccccc3)c(C[P+](c3ccccc3)(c3ccccc3)c3ccccc3)nc(C)c2O1.[Cl-].[Cl-] (centres undefined) | 1000 | > 1000 | 10 | 5 | 2 | 
11 | CCCCCC1OCc2c(C[P+](c3ccccc3)(c3ccccc3)c3ccccc3)c(C[P+](c3ccccc3)(c3ccccc3)c3ccccc3)nc(C)c2O1.[Cl-].[Cl-] (centres undefined) | 1000 | > 1000 | 5 | 5 | 1 | 
12 | CCCCCCCC1OCc2c(C[P+](c3ccccc3)(c3ccccc3)c3ccccc3)c(C[P+](c3ccccc3)(c3ccccc3)c3ccccc3)nc(C)c2O1.[Cl-].[Cl-] (centres undefined) | 1000 | > 1000 | 10 | 10 | 0.5 | 
13 | Cc1nc(C[P+](c2ccccc2)(c2ccccc2)c2ccccc2)c(C[P+](c2ccccc2)(c2ccccc2)c2ccccc2)c2c1OC(C)OC2.[Cl-].[Cl-] (centres undefined) | > 1000 | > 1000 | 10 | 12.5 | 33.9 | 
14 | CCCC[P+](CCCC)(CCCC)Cc1nc(C)c2c(c1C[P+](CCCC)(CCCC)CCCC)COC(C)(C)O2.[Cl-].[Cl-] | > 1000 | > 1000 | 1.25 | 1.25 | 200 | viability at 6 h, 1 ug/ml [1]: 109%; viability at 6 h, 10 ug/ml [2]: 115%; viability at 6 h, 100 ug/ml [3]: 66.1%; viability at 6 h, 1 ug/ml [4]: 112%; viability at 6 h, 10 ug/ml [5]: 118%; viability at 6 h, 100 ug/ml [6]: 57.8%; viability at 6 h, 1 ug/ml [7]: 88.6%; viability at 6 h, 100 ug/ml [8]: 77.8%; viability at 6 h, 10 ug/ml [9]: 82.9%; Ratio [10]: 0.82; Ratio [11]: 1.21; Ratio [13]: 1.04
15 | Cc1ccc([P+](Cc2nc(C)c3c(c2C[P+](c2ccc(C)cc2)(c2ccc(C)cc2)c2ccc(C)cc2)COC(C)(C)O3)(c2ccc(C)cc2)c2ccc(C)cc2)cc1.[Cl-].[Cl-] | > 1000 | > 1000 | 1 | 1 | 29.5 | 
16 | Cc1cccc([P+](Cc2nc(C)c3c(c2C[P+](c2cccc(C)c2)(c2cccc(C)c2)c2cccc(C)c2)COC(C)(C)O3)(c2cccc(C)c2)c2cccc(C)c2)c1.[Cl-].[Cl-] | 1000 | > 1000 | 1.25 | 1.25 | 13 | 
17 | Cc1nc(C[P+](c2cccs2)(c2cccs2)c2cccs2)c(C[P+](c2cccs2)(c2cccs2)c2cccs2)c2c1OC(C)(C)OC2.[Cl-].[Cl-] | > 1000 | > 1000 | 100 | 100 |  | 
18 | Cc1nc(C[P+](c2ccc(F)cc2)(c2ccc(F)cc2)c2ccc(F)cc2)c(C[P+](c2ccc(F)cc2)(c2ccc(F)cc2)c2ccc(F)cc2)c2c1OC(C)(C)OC2.[Cl-].[Cl-] | > 1000 | > 1000 | 50 | 50 |  | 
19 | Cc1nc2c(c3c1OC(C)(C)OC3)C[P+](c1ccccc1)(c1ccccc1)CC[P+](c1ccccc1)(c1ccccc1)C2.[Cl-].[Cl-] | > 1000 | > 1000 | 100 | 125 |  | 
20 | CCCC[P+](CCCC)(CCCC)Cc1nc(C)c(O)c(CO)c1C[P+](CCCC)(CCCC)CCCC.Cl.[Cl-].[Cl-] | > 1000 | > 1000 | 1000 | 1000 |  | 
21 | Cc1ccc([P+](Cc2nc(C)c(O)c(CO)c2C[P+](c2ccc(C)cc2)(c2ccc(C)cc2)c2ccc(C)cc2)(c2ccc(C)cc2)c2ccc(C)cc2)cc1.Cl.[Cl-].[Cl-] | > 1000 | > 1000 | > 1000 | > 1000 |  | 
22 | Cc1cccc([P+](Cc2nc(C)c(O)c(CO)c2C[P+](c2cccc(C)c2)(c2cccc(C)c2)c2cccc(C)c2)(c2cccc(C)c2)c2cccc(C)c2)c1.Cl.[Cl-].[Cl-] | > 1000 | > 1000 | 12.5 | 12.5 |  | 
23 | Cc1nc(C[P+](c2cccs2)(c2cccs2)c2cccs2)c(C[P+](c2cccs2)(c2cccs2)c2cccs2)c(CO)c1O.Cl.[Cl-].[Cl-] | > 1000 | > 1000 | > 1000 | 1000 |  | 
24 | Cc1nc(C[P+](c2ccc(F)cc2)(c2ccc(F)cc2)c2ccc(F)cc2)c(C[P+](c2ccc(F)cc2)(c2ccc(F)cc2)c2ccc(F)cc2)c(CO)c1O.Cl.[Cl-].[Cl-] | > 1000 | > 1000 | 1000 | 1000 |  | 
25 | Cc1nc2c(c(CO)c1O)C[P+](c1ccccc1)(c1ccccc1)CC[P+](c1ccccc1)(c1ccccc1)C2.Cl.[Cl-].[Cl-] | > 1000 | > 1000 | 500 | 500 |  | 
26 | CN[C@H](CC(C)C)C(=O)N[C@H]1C(=O)N[C@@H](CC(N)=O)C(=O)N[C@H]2C(=O)N[C@H]3C(=O)N[C@H](C(=O)N[C@H](C(=O)O)c4cc(O)cc(O)c4-c4cc3ccc4O)[C@H](O)c3ccc(c(Cl)c3)Oc3cc2cc(c3O[C@@H]2O[C@H](CO)[C@@H](O)[C@H](O)[C@H]2O[C@H]2C[C@](C)(N)[C@H](O)[C@H](C)O2)Oc2ccc(cc2Cl)[C@H]1O [VANCOMYCIN] | > 1000 | > 1000 | 2.5 (≈ 1.73 µM) | 2.5 (≈ 1.73 µM) | > 1000 | 
